Test [1] has as its system isolierten Aortenringen von Kaninchen. Description: Inhibition of angiotensin II-induced contraction of isolated rabbit aortic rings. The test is classed as cell-based. To be noted: isolated rabbit aortic rings in vitro; effect at 3rd (submaximal) agonist concentration; read-out: IC50 gegen Kontraktionen, induziert durch AII. As for the experimental part: Kaninchen beiderlei Geschlechts werden durch Nackenschlag betäubt und entblutet, oder fallweise mit Nembutal (ca. 60 - 80 mg/kg i.v.) narkotisiert und durch Öffnung des Thorax getötet. Die Thoraxaorta wird entnommen, von anhaftendem Bindegewebe befreit, in 1,5 mm breite Ringsegmente geteilt und einzeln unter einer Anfangsbelastung von ca. 3,5 g in 10 ml Organbäder mit auf 37°C temperierter, Carbogen-begaster Krebs-Henseleit-Nährlösung folgender Zusammensetzung: 119 mmol/l NaCl; 2,5 mmol/l CaCl₂ x 2 H₂O; 1,2 mmol/l KH₂PO₄; 10 mmol/l Glucose; 4,8 mmol/l KCl; 1,4 mmol/l MgSO₄ x 7 H₂O und 25 mmol/l NaHCO₃ verbracht.
Die Kontraktionen werden isometrisch durch Statham UC2-Zellen über Brückenverstärker (ifd Mülheim bzw. DSM Aalen) erfaßt und mittels A/D-Wandler (System 570, Keithley München) digitalisiert sowie ausgewertet. Die Durchführung von Agonistdosiswirkungskurven (DWK) erfolgt stündlich. Mit jeder DWK werden 3 bzw. 4 Einzelkonzentrationen im 4 min-Abstand in die Bäder appliziert. Nach Ende der DWK und darauffolgender Auswaschzyklen (16 mal jeweils ca. 5 sec/min mit der o.a. Nährlösung) schließt sich eine 28-minütige Ruhe- bzw. Inkubationsphase an, innerhalb derer die Kontraktionen in der Regel wieder den Ausgangswert erreichen.
Die Höhe der im Normalfall 3. […]

For the next test, the target named is T1, Angiotensin II-Rezeptor (Bos taurus, UniProt P25104).
T1 construct: an partiell gereinigten Membranfraktionen boviner NNR mit radioaktivem Angiotensin II; from tissue; host or cells: bovine adrenal cortex, partially purified membrane fractions
T1 sequence (P25104 1-359): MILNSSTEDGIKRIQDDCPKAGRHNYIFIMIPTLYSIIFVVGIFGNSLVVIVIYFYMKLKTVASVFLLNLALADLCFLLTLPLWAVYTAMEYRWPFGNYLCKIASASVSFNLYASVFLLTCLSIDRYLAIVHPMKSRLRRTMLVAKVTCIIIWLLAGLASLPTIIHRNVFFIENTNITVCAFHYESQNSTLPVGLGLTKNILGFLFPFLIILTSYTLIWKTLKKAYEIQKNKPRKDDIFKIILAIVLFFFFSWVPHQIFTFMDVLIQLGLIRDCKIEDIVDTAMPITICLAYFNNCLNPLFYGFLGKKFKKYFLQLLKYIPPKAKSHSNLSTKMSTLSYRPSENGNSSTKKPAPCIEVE
Description: Angiotensin II receptor binding on membrane fractions of bovine adrenal cortex (3H-angiotensin II). Particulars: bovine adrenal cortex membranes, 3H-Angiotensin II 3-5 nM, 60 min, room temperature. Further details: species or system Rind. Here is the method:
Nebennierenrinden vom Rind (NNR), die frisch entnommen und sorgfältig von Mark von Kapsel befreit sind, werden in Sucrose-Lösung (0,32 M) mit Hilfe eines Ultra-Turrax (Janke & Kunkel, Staufen i.B.) zu grobem Membran-Homogenat zerkleinert und in zwei Zentrifugationsschritten zu Membranfraktionen partiell aufgereinigt. Die Untersuchungen zur Rezeptor-Bindung werden an partiell gereinigten Membranfraktionen boviner NNR mit radioaktivem Angiotensin II in einem Assay-Volumen von 0,25 ml durchgeführt, das im einzelnen die partiell gereinigten Membranen (50 - 80 µg), ³H-Angiotensin II (3-5 nM), Test-Pufferlösung (50 mM Tris, pH 7,2, 5 mM MgCl₂ sowie die zu untersuchenden Substanzen enthält. Nach einer Inkubationszeit von 60 min bei Raumtemperatur wird die nicht gebundene Radioaktivität der Proben mittels angefeuchteter Glasfaserfilter (Whatman GF/C) separiert und die gebundene Radioaktivität nach Waschung des Proteins mit eiskalter Pufferlösung (50 mM Tris/HCl, pH 7,4, 5% PEG 6000) in einem Szintillationscocktail […] gemessen. Die Analyse der Rohdaten erfolgte mit Computer-Programmen zu Ki- bzw. IC₅₀-Werten (Ki: für die verwendete Radioaktivität korrigierte IC₅₀-Werte; IC₅₀-Werte: Konzentration bei der die zu untersuchende Substanz eine 50%ige Hemmung der spezifischen Bindung des Radioliganden bewirkt).

Read-outs that look alike come from different tables or passages of the source.

On to `CCCCc1nc2cccc(C(=O)OC)c2n1Cc1ccc(S(=O)(=O)N2CCCC2C(=O)O)cc1Cl` (stereo in doubt) [Beispiel 2, (S)-2-Butyl-1-[3-chlor-1-(N-2'-carboxy-pyrrolidinyl)-sulfonyl]-7-methoxycarbonyl-benz[d]imidazol], for which, in test [1], the IC50 (commonly the point on the concentration scale where inhibition reaches its midpoint) was 46 nM. For the compound `CCCCc1nc2cccc(C(=O)O)c2n1Cc1ccc(S(=O)(=O)N2CCC[C@H]2C(=O)O)cc1Cl` [Beispiel 3, (S)-2-Butyl-7-carboxy-1-[3-chlor-1-(N-2-carboxy-pyrrolidinyl)-sulfonyl]-benz[d]imidazol], the inhibition constant (Ki) – broadly, a measure of affinity in units of concentration, obtained from inhibition or displacement – at Angiotensin II-Rezeptor turned out to be 48 nM.

For `CCCCc1nc2cccc(C(=O)OC)c2n1Cc1ccc(S(=O)(=O)N2CCC[C@H]2C(=O)OC(C)(C)C)cc1F` [Beispiel 4], at Angiotensin II-Rezeptor (read-out: Ki), the Ki amounted to 735 nM. For the compound `CCCCc1nc2cccc(C(=O)O)c2n1Cc1ccc(S(=O)(=O)N2CCC[C@H]2C(=O)O)cc1Cl` [Beispiel 7, (S)-2-Butyl-7-carboxy-1-[3-chlor-1-(N-2-carboxypyrrolidinyl)-sulfonyl]benz[d]imidazol Bis Kaliumsalz], the affinity at Angiotensin II-Rezeptor corresponds to a Ki of 260 nM.

These data come from patent EP0643060A2, “Sulfonylbenzyl-substituted benzimidazoles, process for their preparation, and their pharmaceutical use” (BAYER AG, priority 1993, dated 1995).
